In the first experiment the target is T1, CFTR (Homo sapiens, UniProt P13569).
T1 construct: endogenous in cells; host or cells: T84 human colonic cells (ECACC)
T1 sequence (P13569 whole entry): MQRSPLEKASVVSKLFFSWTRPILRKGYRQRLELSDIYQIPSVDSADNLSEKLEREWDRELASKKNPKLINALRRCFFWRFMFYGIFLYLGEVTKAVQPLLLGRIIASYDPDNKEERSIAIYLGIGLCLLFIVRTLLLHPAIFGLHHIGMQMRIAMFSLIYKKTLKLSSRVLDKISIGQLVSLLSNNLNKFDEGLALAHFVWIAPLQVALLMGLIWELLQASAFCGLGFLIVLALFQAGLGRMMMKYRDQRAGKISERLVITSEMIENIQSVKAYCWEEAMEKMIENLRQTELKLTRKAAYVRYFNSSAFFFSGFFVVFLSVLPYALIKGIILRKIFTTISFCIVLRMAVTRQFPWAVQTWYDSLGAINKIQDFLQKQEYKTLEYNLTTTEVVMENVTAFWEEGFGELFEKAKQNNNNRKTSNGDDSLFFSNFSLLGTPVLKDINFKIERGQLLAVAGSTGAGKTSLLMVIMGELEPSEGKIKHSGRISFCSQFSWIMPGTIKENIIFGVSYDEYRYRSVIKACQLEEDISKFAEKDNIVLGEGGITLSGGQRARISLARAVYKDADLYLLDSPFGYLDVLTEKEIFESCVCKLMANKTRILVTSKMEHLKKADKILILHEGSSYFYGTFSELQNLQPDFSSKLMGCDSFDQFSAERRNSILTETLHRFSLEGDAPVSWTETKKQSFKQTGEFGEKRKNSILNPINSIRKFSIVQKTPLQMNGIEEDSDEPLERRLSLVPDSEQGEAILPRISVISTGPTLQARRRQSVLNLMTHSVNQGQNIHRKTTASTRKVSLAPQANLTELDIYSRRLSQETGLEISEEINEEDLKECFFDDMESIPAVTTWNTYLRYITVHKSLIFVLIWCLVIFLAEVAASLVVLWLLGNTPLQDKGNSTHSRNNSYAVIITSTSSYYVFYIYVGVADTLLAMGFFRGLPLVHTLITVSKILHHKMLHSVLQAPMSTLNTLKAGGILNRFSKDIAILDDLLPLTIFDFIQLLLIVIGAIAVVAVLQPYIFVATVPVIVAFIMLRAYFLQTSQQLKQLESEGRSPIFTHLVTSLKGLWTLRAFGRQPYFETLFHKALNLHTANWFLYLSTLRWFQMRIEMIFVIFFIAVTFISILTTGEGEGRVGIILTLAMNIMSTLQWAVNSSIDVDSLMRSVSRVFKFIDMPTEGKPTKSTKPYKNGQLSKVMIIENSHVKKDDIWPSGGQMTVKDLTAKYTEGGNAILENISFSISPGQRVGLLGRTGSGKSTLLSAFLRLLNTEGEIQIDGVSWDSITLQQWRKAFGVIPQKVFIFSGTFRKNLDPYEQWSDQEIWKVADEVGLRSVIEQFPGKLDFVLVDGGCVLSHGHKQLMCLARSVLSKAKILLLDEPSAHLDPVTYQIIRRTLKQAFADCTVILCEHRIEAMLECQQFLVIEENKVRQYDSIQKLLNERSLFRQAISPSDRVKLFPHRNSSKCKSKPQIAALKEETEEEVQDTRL
Nature of the experiment: T84 assay (FLIPR membrane potential dye, forskolin/IBMX-stimulated CFTR channel activity). The class given is cell-based. The following applies: imidazole and triazole-containing compounds (Tables 13, 14, 14′), read-out: IC50 (μM) (T84 assay). The procedure, abridged:
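Fluorescence from a membrane potential dye in T84 monolayers (HBSS with 10 mM Hepes) is followed each second for 150 s. Cells are exposed to test compound during the 45 min dye loading, then challenged with forskolin (10 μM) and IBMX (100 μM) to open CFTR. Inhibitors suppress the depolarization-driven fluorescence increase.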
Take `COCCOCCOCCOCCOCCOCCOCCOCCN(Cc1ccc(C(C)(C)C)cc1)C(=O)c1ncn(-c2cc(Cl)c(O)c(Cl)c2)n1` [117i, N-(4-tert-butylbenzyl)-1-(3,5-dichloro-4-hydroxyphenyl)-N-(2,5,8,11,14,17,20,23-octaoxapentacosan-25-yl)-1H-1,2,4-triazole-3-carboxamide]: the IC50 was 21.4 µM. The same measure, in the same setting: then `Cc1noc(C)c1CCNC(=O)c1ncn(-c2cc(Cl)c(O)c(Cl)c2)n1` [74i, 1-(3,5-dichloro-4-hydroxyphenyl)-N-(2-(3,5-dimethylisoxazol-4-yl)ethyl)-1H-1,2,4-triazole-3-carboxamide], with 1.28 µM.

The experiment is the same for the next values; noted with them: isoxazole-containing compounds (Table 10, 10′, 11, 11′), read-out: IC50.
Take `CN(Cc1ccc2c(c1)OCO2)C(=O)c1cc(-c2cc(Br)c(O)c(Br)c2)on1` [4g, N-(benzo[d][1,3]dioxol-5-ylmethyl)-5-(3,5-dibromo-4-hydroxyphenyl)-N-methylisoxazole-3-carboxamide]: the IC50 turned out to be 19 µM.

The same experiment, now with this note: oxadiazole-containing compounds (a series), average of at least 2 runs unless annotated n = 1, read-out: IC50.
For the compound `O=C(NCc1cccc(F)c1)c1nc(-c2cc(Br)c(O)c(Br)c2)no1` [23a, 3-(3,5-dibromo-4-hydroxyphenyl)-N-(3-fluorobenzyl)-1,2,4-oxadiazole-5-carboxamide], the IC50 came out at 12.7 µM. On the same count and under the same terms, then `O=C(NCc1cccc(OC(F)F)c1)c1noc(-c2cc(Cl)c(O)c(Cl)c2)n1` [163a, 5-(3,5-dichloro-4-hydroxyphenyl)-N-(3-(difluoromethoxy)benzyl)-1,2,4-oxadiazole-3-carboxamide], with 11.5 µM; and `O=C(NCc1cccc(OC(F)(F)F)c1)c1nc(-c2cc(Br)c(O)c(Br)c2)no1` [12a, 3-(3,5-dibromo-4-hydroxyphenyl)-N-(3-(trifluoromethoxy)benzyl)-1,2,4-oxadiazole-5-carboxamide], with 7.89 µM; and `CN(C)c1ccc(CNC(=O)c2noc(-c3cc(Cl)c(O)c(Cl)c3)n2)cc1` [158a, 5-(3,5-dichloro-4-hydroxyphenyl)-N-(4-(dimethylamino)benzyl)-1,2,4-oxadiazole-3-carboxamide], with 17.5 µM. Same read-out and setting: then `COC(=O)C1CCN(C(=O)COc2c(Br)cc(-c3noc(C(=O)N4CCC(Cc5ccccc5)CC4)n3)cc2Br)CC1` [68a, methyl 1-(2-(4-(5-(4-benzylpiperidine-1-carbonyl)-1,2,4-oxadiazol-3-yl)-2,6-dibromophenoxy)acetyl)piperidine-4-carboxylate], with 10.3 µM; and `O=C(NCc1cccc(Oc2ccccc2)c1)c1nc(-c2cc(Cl)c(O)c(Cl)c2)no1` [145a, 3-(3,5-dichloro-4-hydroxyphenyl)-N-(3-phenoxybenzyl)-1,2,4-oxadiazole-5-carboxamide], with 9.87 µM. In the case of `O=C(c1nc(-c2cc(Br)c(O)c(Br)c2)no1)N(Cc1cccnc1)Cc1cccc(C(F)(F)F)c1` [2a, 3-(3,5-dibromo-4-hydroxyphenyl)-N-(pyridin-3-ylmethyl)-N-(3-(trifluoromethyl)benzyl)-1,2,4-oxadiazole-5-carboxamide], the IC50 turned out to be 1.03 µM.

In the case of `O=C(NCc1ccc(Cl)cc1)c1nc(-c2cc(Br)c(O)c(Br)c2)no1` [40a, N-(4-chlorobenzyl)-3-(3,5-dibromo-4-hydroxyphenyl)-1,2,4-oxadiazole-5-carboxamide], the IC50 stood at 27.1 µM. Same read-out and setting: then `O=C(NCc1ccccc1Cl)c1noc(-c2cc(Cl)c(O)c(Cl)c2)n1` [83a, N-(2-chlorobenzyl)-5-(3,5-dichloro-4-hydroxyphenyl)-1,2,4-oxadiazole-3-carboxamide], with 7.28 µM.

The same experiment, now with this note: thiadiazole-containing compounds (Table 12), read-out: IC50.
As for `CN(CCO)C(=O)COc1c(Cl)cc(-c2nnc(CN3c4ccccc4Sc4ccccc43)s2)cc1Cl` [8h, 2-(4-(5-((10H-phenothiazin-10-yl)methyl)-1,3,4-thiadiazol-2-yl)-2,6-dichlorophenoxy)-N-(2-hydroxyethyl)-N-methylacetamide], the IC50 amounted to 8.64 µM. The same measure, in the same setting: then `Oc1c(Cl)cc(-c2nnc(Cc3ccsc3)s2)cc1Cl` [6h, 2,6-dichloro-4-(5-(thiophen-3-ylmethyl)-1,3,4-thiadiazol-2-yl)phenol], with 17.6 µM.

The values above are taken from patent US20100144733A1, “Compounds, compositions and methods comprising heteroaromatic derivatives” (Institute for OneWorld Health, priority 2008, published 2010).
